Laboratory results from patent publication US12539292B2, “BRM targeting compounds and associated methods of use” (Arvinas Operations, Inc., priority 2018, dated 2026).
Like-named read-outs stand apart in the source and are kept apart here.

Molecular target: T1, BRM (Homo sapiens, UniProt P51531)
T1 construct: In-Cell Western Screen of BRM Degradation in SW1573 Cells; endogenous in cells; host or cells: SW1573
Test: In-cell Western screen of BRM degradation in SW1573 cells (Dmax and DC50)
Assay type: cell-based
In short: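 Adherent SW1573 cultures exposed to test compounds for 18-20 h were processed for in-cell Western after PFA fixation and detergent permeabilization. BRM degradation was reported as Dmax and DC50.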

[1] = SW1573, % degraded, when tested at the top concentration of between 0.3 and 10 μM, read-out: BRM Dmax (%)
[2] = degradation of BRM, read-out: BRM DC50
[3] = BRM degradation, SW1573 cells, read-out: DC50
[4] = BRM degradation, SW1573 cells, tested at the top concentration of between 0.3 and 10 μM, read-out: Dmax (%) (% degraded)
[5] = BRM degradation, SW1573 cells, read-out: Dmax (% degraded)
[6] = target protein degradation, read-out: BRM DC50

T1 sequence (P51531 whole entry): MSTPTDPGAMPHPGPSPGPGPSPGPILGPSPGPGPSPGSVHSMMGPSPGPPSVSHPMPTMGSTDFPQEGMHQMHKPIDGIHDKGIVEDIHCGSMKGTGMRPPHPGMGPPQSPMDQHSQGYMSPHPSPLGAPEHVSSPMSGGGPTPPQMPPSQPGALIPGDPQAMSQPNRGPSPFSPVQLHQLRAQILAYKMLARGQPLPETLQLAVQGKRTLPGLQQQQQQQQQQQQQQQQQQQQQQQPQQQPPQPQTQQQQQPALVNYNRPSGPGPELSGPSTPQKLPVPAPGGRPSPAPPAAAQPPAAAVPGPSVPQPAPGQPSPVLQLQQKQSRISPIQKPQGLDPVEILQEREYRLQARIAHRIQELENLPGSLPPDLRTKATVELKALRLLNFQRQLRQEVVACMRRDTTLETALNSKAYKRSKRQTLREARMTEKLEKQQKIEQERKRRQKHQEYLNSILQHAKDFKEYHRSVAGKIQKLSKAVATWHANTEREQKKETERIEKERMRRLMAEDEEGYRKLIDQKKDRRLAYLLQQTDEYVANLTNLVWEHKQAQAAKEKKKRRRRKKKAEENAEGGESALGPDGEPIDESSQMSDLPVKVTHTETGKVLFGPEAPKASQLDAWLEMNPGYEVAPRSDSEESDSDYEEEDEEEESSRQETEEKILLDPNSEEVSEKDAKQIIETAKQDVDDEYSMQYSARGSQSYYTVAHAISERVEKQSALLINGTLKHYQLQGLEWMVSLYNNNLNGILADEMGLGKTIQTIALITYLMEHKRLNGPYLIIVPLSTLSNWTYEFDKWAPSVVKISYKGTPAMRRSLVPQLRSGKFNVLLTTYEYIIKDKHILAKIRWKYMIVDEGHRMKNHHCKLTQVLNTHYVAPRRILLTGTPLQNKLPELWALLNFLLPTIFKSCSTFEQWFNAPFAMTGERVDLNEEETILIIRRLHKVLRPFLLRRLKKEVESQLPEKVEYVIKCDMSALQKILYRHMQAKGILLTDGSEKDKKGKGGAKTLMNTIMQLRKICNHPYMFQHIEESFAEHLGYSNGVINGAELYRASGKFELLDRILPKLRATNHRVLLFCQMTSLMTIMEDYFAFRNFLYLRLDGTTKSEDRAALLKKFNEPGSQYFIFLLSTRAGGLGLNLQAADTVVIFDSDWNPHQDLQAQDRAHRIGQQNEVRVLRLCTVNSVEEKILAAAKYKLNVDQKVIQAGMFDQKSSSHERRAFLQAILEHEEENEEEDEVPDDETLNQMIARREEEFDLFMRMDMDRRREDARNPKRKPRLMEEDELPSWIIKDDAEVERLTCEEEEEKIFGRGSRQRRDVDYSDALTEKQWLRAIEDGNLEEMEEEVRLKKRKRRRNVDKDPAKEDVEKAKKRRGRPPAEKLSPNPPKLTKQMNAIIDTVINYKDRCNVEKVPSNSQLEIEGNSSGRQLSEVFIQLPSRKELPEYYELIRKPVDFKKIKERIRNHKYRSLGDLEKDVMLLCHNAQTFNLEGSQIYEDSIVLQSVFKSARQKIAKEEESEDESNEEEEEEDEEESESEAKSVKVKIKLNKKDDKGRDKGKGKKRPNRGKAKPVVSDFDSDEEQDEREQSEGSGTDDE

Structure (SMILES): Cc1ncsc1-c1ccc([C@H](C)NC(=O)[C@@H]2C[C@@H](O)CN2C(=O)[C@@H](c2cc(OCCN(C(C)C)[C@H]3CC[C@H](O[C@H]4C[C@H](Oc5cc(N6C7CCC6CN(c6cc(-c8ccccc8O)nnc6N)C7)ccn5)C4)CC3)no2)C(C)C)cn1 [compound 505, (2S,4R)-1-((2R)-2-(3-(2-(((1R,4R)-4-((1r,3R)-3-((4-(3-(3-amino-6-(2-hydroxyphenyl)pyridazin-4-yl)-3,8-diazabicyclo[3.2.1]octan-8-yl)pyridin-2-yl)oxy)cyclobutoxy)cyclohexyl)(isopropyl)amin 0)ethoxy)isoxazol-5-yl)-3-methylbutanoyl)-4-hydroxy-N-((S)-1-(6-(4-methylthiazol-5-yl)pyridin-3-yl)ethyl)pyrrolidine-2-carboxamide]
- DC50 (BRM degradation, read-out: BRM DC50): 2.5 to 10 nM
- Dmax [1]: > 75%

Structure (SMILES): Cc1ncsc1-c1ccc([C@@H](NC(=O)[C@@H]2C[C@@H](O)CN2C(=O)[C@@H](c2cc(OCCN3CCC(O[C@H]4C[C@H](Oc5cc(N6C7CCC6CN(c6cc(-c8ccccc8O)nnc6N)C7)ccn5)C4)CC3)no2)C(C)C)C(=O)N(C)C2CCC2)cc1 [compound 420, (2S,4R)-1-((2R)-2-(3-(2-(4-((1r,3R)-3-((4-(3-(3-amino-6-(2-hydroxyphenyl)pyridazin-4-yl)-3,8-diazabicyclo[3.2.1]octan-8-yl)pyridin-2-yl)oxy)cyclobutoxy)piperidin-1-yl)ethoxy)isoxazol-5-yl)-3-methylbutanoyl)-N-((R)-2-(cyclobutyl(methyl)amino)-1-(4-(4-methylthiazol-5-yl)phenyl)-2-oxoethyl)-4-hydroxypyrrolidine-2-carboxamide]
- Dmax [1]: > 75%
- DC50 [2]: < 2.5 nM

Structure (SMILES): Cc1ncsc1-c1ccc([C@@H](COCC(C)C)NC(=O)[C@@H]2C[C@@H](O)CN2C(=O)[C@@H](c2cc(OCCN3CCN(CCOc4cc(N5C6CCC5CN(c5cc(-c7ccccc7O)nnc5N)C6)ccn4)CC3)no2)C(C)C)cc1 [compound 298, (2S,4R)-1-((2R)-2-(3-(2-(4-(2-((4-(3-(3-amino-6-(2-hydroxyphenyl)pyridazin-4-yl)-3,8-diazabicyclo[3.2.1]octan-8-yl)pyridin-2-yl)oxy)ethyl)piperazin-1-yl)ethoxy)isoxazol-5-yl)-3-methylbutanoyl)-4-hydroxy-N-((S)-2-isobutoxy-1-(4-(4-methylthiazol-5-yl)phenyl)ethyl)pyrrolidine-2-carboxamide]
- DC50 [3]: < 2.5 nM
- Dmax [4]: > 75%

Structure (SMILES): Cc1nccn1-c1ccc([C@H](C)NC(=O)[C@@H]2C[C@@H](O)CN2C(=O)[C@H](c2cc(N3CCN(CCN4CCC(O[C@H]5C[C@H](Oc6cc(N7C8CCC7CN(c7cc(-c9ccccc9O)nnc7N)C8)ccn6)C5)CC4)CC3)no2)C(C)C)cc1 [compound 412, (2S,4R)-1-((2S)-2-(3-(4-(2-(4-((1r,3r)-3-((4-(3-(3-amino-6-(2-hydroxyphenyl)pyridazin-4-yl)-3,8-diazabicyclo[3.2.1]octan-8-yl)pyridin-2-yl)oxy)cyclobutoxy)piperidin-1-yl)ethyl)piperazin-1-yl)isoxazol-5-yl)-3-methylbutanoyl)-4-hydroxy-N-((S)-1-(4-(2-methyl-1 H-imidazol-1-yl)phenyl)ethyl)pyrrolidine-2-carboxamide]
- DC50 [2]: > 30 nM

Structure (SMILES): Cc1ncsc1-c1ccc(CNC(=O)[C@@H]2C[C@@H](O)CN2C(=O)[C@H](c2cc(OCCOCCOCCn3cc(-c4cc(-c5ccccc5O)nnc4N)cn3)no2)C(C)C)cc1 [compound 14, (2S,4R)-1-[(2S)-2-(3-[2-[2-(2-[4-[3-amino-6-(2-hydroxyphenyl)pyridazin-4-yl]-1H-pyrazol-1-yl]ethoxy)ethoxy]ethoxy]-1,2-oxazol-5-yl)-3-methylbutanoyl]-4-hydroxy-N-[[4-(4-methyl-1,3-thiazol-5-yl)phenyl]methyl]pyrrolidine-2-carboxamide]
- Dmax (BRM degradation, SW1573 cells, when tested at the top concentration of between 0.3 and 10 μM, read-out: Dmax (%) (% degraded)): < 50%

Structure (SMILES): Cc1ncsc1-c1ccc([C@@H](NC(=O)[C@@H]2C[C@@H](O)CN2C(=O)[C@H](c2cc(OCCN3CCC(O[C@H]4C[C@H](Oc5cc(N6C7CCC6CN(c6cc(-c8ccccc8O)nnc6N)C7)ccn5)C4)CC3)no2)C(C)C)C(F)F)cc1 [compound 267, (2S,4R)-1-((2S)-2-(3-(2-(4-((1r,3S)-3-((4-(3-(3-amino-6-(2-hydroxyphenyl)pyridazin-4-yl)-3,8-diazabicyclo[3.2.1]octan-8-yl)pyridin-2-yl)oxy)cyclobutoxy)piperidin-1-yl)ethoxy)isoxazol-5-yl)-3-methylbutanoyl)-N-((R)-2,2-difluoro-1-(4-(4-methylthiazol-5-yl)phenyl)ethyl)-4-hydroxypyrrolidine-2-carboxamide]
- DC50 [3]: 2.5 to 10 nM
- Dmax [4]: > 75%

Structure (SMILES): CC[C@@H](NC(=O)[C@@H]1C[C@@H](O)CN1C(=O)[C@@H](c1cc(N2CCC(CN3CCC(O[C@H]4C[C@H](Oc5cc(N6C7CCC6CN(c6cc(-c8ccccc8O)nnc6N)C7)ccn5)C4)CC3)CC2)no1)C(C)C)c1ccc(-c2scnc2C)cc1 [compound 663, (2S,4R)-1-((2R)-2-(3-(4-((4-((1r,3r)-3-((4-(3-(3-amino-6-(2-hydroxyphenyl)pyridazin-4-yl)-3,8-diazabicyclo[3.2.1]octan-8-yl)pyridin-2-yl)oxy)cyclobutoxy)piperidin-1-yl)methyl)piperidin-1-yl)isoxazol-5-yl)-3-methylbutanoyl)-4-hydroxy-N-((R)-1-(4-(4-methylthiazol-5-yl)phenyl)propyl)pyrrolidine-2-carboxamide]
- DC50 [3]: 2.5 to 10 nM
- Dmax [5]: 50 to 75%

Structure (SMILES): Cc1ncsc1-c1ccc([C@H](C)NC(=O)[C@@H]2C[C@@H](O)CN2C(=O)[C@@H](c2cc(N3CCN(C(C)[C@H]4C[C@H](Oc5cc(N6C7CCC6CN(c6cc(-c8ccccc8O)nnc6N)C7)ccn5)C4)CC3)no2)C(C)C)cc1 (stereo partly drawn) [compound 704, (2S,4R)-1-((2R)-2-(3-(4-((1S)-1-((1r,3S)-3-((4-(3-(3-amino-6-(2-hydroxyphenyl)pyridazin-4-yl)-3,8-diazabicyclo[3.2.1]octan-8-yl)pyridin-2-yl)oxy)cyclobutyl)ethyl)piperazin-1-yl)isoxazol-5-yl)-3-methylbutanoyl)-4-hydroxy-N-((S)-1-(4-(4-methylthiazol-5-yl)phenyl)ethyl)pyrrolidine-2-carboxamide]
- DC50 [3]: < 2.5 nM
- Dmax [5]: > 75%

Structure (SMILES): Cc1nccn1-c1ccc([C@H](C)NC(=O)[C@@H]2C[C@@H](O)CN2C(=O)[C@@H](c2cc(N3CCC(OC4CCN(C[C@H]5C[C@H](Oc6cc(N7C8CCC7CN(c7cc(-c9ccccc9O)nnc7N)C8)ccn6)C5)CC4)CC3)no2)C(C)C)cc1 [compound 478, (2S,4R)-1-((2R)-2-(3-(4-((1-(((1r,3r)-3-((4-(3-(3-amino-6-(2-hydroxyphenyl)pyridazin-4-yl)-3,8-diazabicyclo[3.2.1]octan-8-yl)pyridin-2-yl)oxy)cyclobutyl)methyl)piperidin-4-yl)oxy)piperidin-1-yl)isoxazol-5-yl)-3-methylbutanoyl)-4-hydroxy-N-((S)-1-(4-(2-methyl-1H-imidazol-1-yl)phenyl)ethyl)pyrrolidine-2-carboxamide]
- Dmax [1]: > 75%
- DC50 [6]: < 2.5 nM

Structure (SMILES): CC(C)C(C(=O)N1C[C@H](O)C[C@H]1C(=O)N[C@@H](C)c1ccc(C#N)cc1)c1cc(N2CCC(CN3CCC(O[C@H]4C[C@H](Oc5cc(N6C7CCC6CN(c6cc(-c8ccccc8O)nnc6N)C7)ccn5)C4)CC3)CC2)no1 (stereo partly drawn) [compound 639, (2S,4R)-1-((2S)-2-(3-(4-((4-((1r,3r)-3-((4-(3-(3-amino-6-(2-hydroxyphenyl)pyridazin-4-yl)-3,8-diazabicyclo[3.2.1]octan-8-yl)pyridin-2-yl)oxy)cyclobutoxy)piperidin-1-yl)methyl)piperidin-1-yl)isoxazol-5-yl)-3-methylbutanoyl)-N-((S)-1-(4-cyanophenyl)ethyl)-4-hydroxypyrrolidine-2-carboxamide]
- DC50 [3]: > 30 nM

Structure (SMILES): Cc1ncsc1-c1ccc([C@H](C)NC(=O)[C@@H]2C[C@@H](O)CN2C(=O)[C@@H](c2cc(OCC#Cc3ccc(O[C@H]4C[C@H](Oc5cc(N6C7CCC6CN(c6cc(-c8ccccc8O)nnc6N)C7)ccn5)C4)cn3)no2)C(C)C)cn1 [compound 237, (2S,4R)-1-((2R)-2-(3-((3-(5-((1r,3R)-3-((4-(3-(3-amino-6-(2-hydroxyphenyl)pyridazin-4-yl)-3,8-diazabicyclo[3.2.1]octan-8-yl)pyridin-2-yl)oxy)cyclobutoxy)pyridin-2-yl)prop-2-yn-1-yl)oxy)isoxazol-5-yl)-3-methylbutanoyl)-4-hydroxy-N-((S)-1-(6-(4-methylthiazol-5-yl)pyridin-3-yl)ethyl)pyrrolidine-2-carboxamide]
- DC50 [3]: < 2.5 nM
- Dmax [4]: > 75%

Structure (SMILES): Cc1ncsc1-c1ccc([C@H](C)NC(=O)[C@@H]2C[C@@H](O)CN2C(=O)[C@H](c2cc(OC[C@@H]3C[C@H]3c3ccc(O[C@H]4C[C@H](Oc5cc(N6C7CCC6CN(c6cc(-c8ccccc8O)nnc6N)C7)ccn5)C4)cn3)no2)C(C)C)cn1 [compound 479, (2S,4R)-1-((2S)-2-(3-(((1R,2R)-2-(5-((1r,3R)-3-((4-(3-(3-amino-6-(2-hydroxyphenyl)pyridazin-4-yl)-3,8-diazabicyclo[3.2.1]octan-8-yl)pyridin-2-yl)oxy)cyclobutoxy)pyridin-2-yl)cyclopropyl)methoxy)isoxazol-5-yl)-3-methylbutanoyl)-4-hydroxy-N-((S)-1-(6-(4-methylthiazol-5-yl)pyridin-3-yl)ethyl)pyrrolidine-2-carboxamide]
- DC50 [6]: > 30 nM
